The text below walks through data of patent US11208412B2 (DAEGU-GYEONGBUK MEDICAL INNOVATION FOUNDATION, priority 2017, dated 2021).

In this assay the target is T1, kinases of the scanMAX Kinase assay panel (Homo sapiens, UniProt Q8NFD2).
T1 construct: purchased DiscoverX Co. (contract measurement) scanMAX Kinase assay panel
T1 sequence (Q8NFD2 1-765): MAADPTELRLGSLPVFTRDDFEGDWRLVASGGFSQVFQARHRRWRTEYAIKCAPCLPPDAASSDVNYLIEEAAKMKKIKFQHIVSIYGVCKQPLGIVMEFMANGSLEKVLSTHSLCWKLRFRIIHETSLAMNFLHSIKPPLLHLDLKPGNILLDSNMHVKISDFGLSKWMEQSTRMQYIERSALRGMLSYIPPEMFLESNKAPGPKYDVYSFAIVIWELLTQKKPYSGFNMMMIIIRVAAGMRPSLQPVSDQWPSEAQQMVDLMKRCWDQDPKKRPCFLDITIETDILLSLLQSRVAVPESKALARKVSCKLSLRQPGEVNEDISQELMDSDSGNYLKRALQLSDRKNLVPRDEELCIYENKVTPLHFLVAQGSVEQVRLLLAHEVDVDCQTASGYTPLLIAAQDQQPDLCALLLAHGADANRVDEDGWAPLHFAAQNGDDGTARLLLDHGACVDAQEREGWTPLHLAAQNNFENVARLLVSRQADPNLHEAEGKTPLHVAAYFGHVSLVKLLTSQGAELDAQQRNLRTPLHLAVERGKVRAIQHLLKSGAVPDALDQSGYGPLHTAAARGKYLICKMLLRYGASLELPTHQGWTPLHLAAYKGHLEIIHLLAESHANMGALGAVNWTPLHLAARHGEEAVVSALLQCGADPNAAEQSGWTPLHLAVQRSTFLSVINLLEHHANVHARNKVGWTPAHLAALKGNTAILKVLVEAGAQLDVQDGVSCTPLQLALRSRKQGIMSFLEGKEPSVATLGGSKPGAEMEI
As to the kind of experiment: Kinase selectivity, DiscoverX scanMAX Kinase assay panel (% control). The format is binding. The following applies: ANKK1; 1 uM. In outline: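 Percent of control computed as (compound − positive control)/(negative control − positive control) × 100, DMSO defining 100% and positive control 0%. Each panel kinase exposed to 1 uM compound; values under 35% taken to mean the compound acts on that kinase.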
Consider `CNc1nc(Nc2ccc(C(=O)N3CCOCC3)cc2OC)nc2[nH]cc(C#N)c12` [Example 1, 2-((2-methoxy-4-(morpholine-4-carbonyl)phenyl)amino)-4-(methylamino)-7H-pyrrolo[2,3-d]pyrimidine-5-carbonitrile], for which the remaining binding at 1 µM turned out to be 82%. With `CC1(Nc2nc(Nc3cnn([C@H]4CCN(C5COC5)C[C@@H]4F)c3Cl)nc3[nH]cc(C#N)c23)CC1` [Example 52, 2-((5-chloro-1-((3S,4S)-3-fluoro-1-(oxetane-3-yl)piperidine-4-yl)-1H-pyrazole-4-yl)amino)((1-methylcyclopropyl)amino)-7H-pyrrolo[2,3-d]pyrimidine-5-carbonitrile], the remaining binding at 1 µM stood at 15%. Take `CCNc1nc(Nc2ccc(C(=O)N3CCC(N4CCOCC4)CC3)cc2OC)nc2[nH]cc(C(F)(F)F)c12` [Example 104, (4-((4-(ethylamino)-5-(trifluoromethyl)-7H-pyrrolo[2,3-d]pyrimidine-2-yl)amino)-3-methoxyphenyl)(4-morpholinopiperidine-1-yl)methanone]: the remaining binding at 1 µM is 95%.
